The assay concerns the target T1, human oxytocin receptor (Homo sapiens, UniProt P30559).
T1 construct: host or cells: CHO cells (pcDNA3.1 vector)
T1 sequence (P30559 1-389): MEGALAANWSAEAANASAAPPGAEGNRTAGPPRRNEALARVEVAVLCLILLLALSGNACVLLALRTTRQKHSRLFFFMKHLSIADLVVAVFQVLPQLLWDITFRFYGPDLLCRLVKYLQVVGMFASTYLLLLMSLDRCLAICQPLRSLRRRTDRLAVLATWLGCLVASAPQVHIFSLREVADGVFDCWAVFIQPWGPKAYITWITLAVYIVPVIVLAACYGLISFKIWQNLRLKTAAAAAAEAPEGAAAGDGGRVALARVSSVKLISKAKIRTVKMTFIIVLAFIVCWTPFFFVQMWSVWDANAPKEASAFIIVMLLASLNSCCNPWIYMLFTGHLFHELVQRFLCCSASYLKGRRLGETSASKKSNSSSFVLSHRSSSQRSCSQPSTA
Description: Oxytocin binding in Chinese Hamster Ovary cell membranes expressing human oxytocin receptors. As to conditions: 100 nM, CHO cell membranes, [3H]oxytocin, values without parentheses; for inhibition at 0.1 µM: read-out: OT % inhibition @ 100% nM. As to the method: Oxytocin Binding in Chinese Hamster Ovary Cell Membranes Expressing Human Oxytocin Receptors
The trypsin is removed by aspiration and the cells dislodged by tapping. Cell Culture medium (e.g. 30 mL for 1:30 split) is immediately added and mixed well to inactivate trypsin. 1 mL of detached cells is added to new culture flasks containing fresh Cell Culture medium (e.g. into 25 mL per T-150 flask), and mixed gently. The cells are incubated at 37° C. in 5% CO2. The medium is changed at 3 to 4 days interval (or as appropriate). […] All steps are done under sterile conditions. B. Membrane Preparation: The cells are washed twice gently with Hank's Balanced Salt solution (e.g., use 10 mL per T-150 flask). […] The contents are transferred to centrifuge tubes (50 mL size) kept in ice bath. All subsequent steps are done at 4° C. The tubes are centrifuged at 300×g for 15 min (1380 rpm on SORVAL, Model RT6000D, using rotor for 50 mL tubes). The supernatant is discarded and the cells suspended in homogenizing buffer (10 mM Tris-HCl containing 0.25 M sucrose and 1 mM EDTA, pH 7.4) ensuring that the volume of the buffer is about ten times the volume of the cell pellet. The cells are pooled into a centrifuge tube (50 mL) and homogenized with a Polytron at setting 6 for 10 sec. The homogenate is transferred into a Potter-Elvjehm homogenizer and homogenized with 3 strokes. The homogenate is centrifuged at 1500×g for 10 min at 4° C. (3100 rpm using SORVAL, model RT6000D, using rotor for 50 mL tubes). The pellet is discarded. The supernatant is centrifuged at 100,000×g for 60 min. at 4° C. (Beckman L8-80M ultracentrifuge; spin at 37,500 rpm with rotor type 70 Ti for 50 mL tubes; 38,000 rpm with type 80Ti for 15 mL tubes; or 35,800 rpm with rotor type 45Ti). The supernantant is discarded and the pellet suspended in 3 to 4 mL of Tris buffer (50 mM TRIS-HCl, pH 7.4). The protein content is estimated by the Bradford or Lowry method. The volume of the membrane suspension is adjusted with the membrane buffer (50 mM Tris-HCl containing 0.1% BSA and 0.1 mM PMSF) to give 3.0 mg/mL (or as appropriate) of protein. The membranes are aliquoted and stored at −70° C. C. Radioligand Binding Assay: In wells of a 96-well format microtiter plate, is added 90, 110 or 130 μL (to make up a final volume of 200 μL) of assay buffer containing 50 mM of Tris-HCl (pH 7.4), […], 1 mg % aprotinin, 1 mg % leupeptin, 2 mg % 1,10-phenanthroline, 10 mg % trypsin inhibitor, and 0.1 mM PMSF. The inhibitors are added on the day of the experiment. The components are mixed at room temperature, and then kept in ice bath following adjustment of the pH to 7.4. […] For oxytocin and other peptide ligands, 20 μL of 50% DMSO is added and the assay buffer volume is adjusted accordingly. To each well is added 50 μL of frozen membrane suspension thawed immediately prior to use and diluted in assay buffer to the required concentration (equivalent to 25 to 50 μg of protein/well as needed). 20 μL of 8 nM [^3H]oxytocin in the assay buffer, prepared just before use is added and incubated at room temperature for 60 min. shaking the plate on a mechanical shaker for the first 15 min. The incubation is stopped by rapid filtration of the plate contents followed by washing with ice-cold buffer (50 mM Tris-HCl, pH 7.4) using a cell harvester (Tomtek and Printed filtermat-B filter paper). The filter paper is thoroughly dried (7–12 min. in a microwave oven) and impregnated with MeltiLex B/H melt-on scintillation wax sheets and the radioactivity counted in a betaplate scintillation counter.
Binding data is either reported as percent inhibition at a certain concentration or if an IC50 was calculated, as a nanomolar concentration.

16 compounds from patent publication US7109193B2, “Tricyclic diazepines tocolytic oxytocin receptor antagonists” (Wyeth, priority 2001, dated 2006) can be followed below.

Molecules are shown by their SMILES.

Take `Cc1cccc(N2CCN(C(=O)c3ccc4n3Cc3ccccc3N(C(=O)c3ccc(-c5ccccc5C(F)(F)F)c(C)c3)C4)CC2C)c1` (stereo not shown) [Example 5, [3-Methyl-4-(3-methyl-phenyl)-piperazin-1-yl]-[10-(2-methyl-2′-trifluoromethyl-[1,1′-biphenyl]-4-yl)carbonyl]-10,11-dihydro-5H-pyrrolo[2,1-c][1,4]benzodiazepin-3-yl-methanone]: the “OT % inhibition @ 100% nM” value was 24%. Same read-out and setting: the result for `COc1cc2c(cc1OC)N(C(=O)c1ccc(-c3ccccc3C(F)(F)F)c(C)c1)Cc1ccc(C(=O)N(C)CCCN(C)C)n1C2.Cl` [Example 13, N-Methyl-[N-(3-dimethylamino)propyl]-7,8-dimethoxy-10-{[2-methyl-2′-(trifluoromethyl)[1,1′-biphenyl]-4-yl]carbonyl}-10,11-dihydro-5H-pyrrolo[2,1-c][1,4]benzodiazepine-3-carboxamide hydrochloride salt] reads 33%; that for `COc1cc2c(cc1OC)N(C(=O)c1ccc(-c3ccccc3C(F)(F)F)c(C)c1)Cc1ccc(C(=O)N3CCC(=O)CC3)n1C2` [Example 14, 7,8-Dimethoxy-10-{[2-methyl-2′-(trifluoromethyl)-[1,1′-biphenyl]-4-yl]carbonyl}-[(10,11-dihydro-5H-pyrrolo[2,1-c][1,4]benzodiazepin-3-yl)carbonyl]-4-piperidinone], 9%. For the compound `COC(=O)c1ccc2c(c1)N(C(=O)c1ccc(-c3ccccc3C(F)(F)F)c(C)c1)Cc1cccn1C2` [Example 26, Methyl 10-{[2-methyl-2′-trifluoromethyl-[1,1′-biphenyl]-4-yl]carbonyl}-10,11-dihydro-5H-pyrrolo[2,1-c][1.4]benzodiazepine-8-carboxylate], the “OT % inhibition @ 100% nM” value is 17%. Take `COc1cc(C(=O)N2Cc3ccc(C(=O)N4CCC[C@H]4CN4CCCC4)n3Cc3ccccc32)ccc1-c1ccccc1Cl` [Example 33, {[10-(2-Methoxy)-2′-chloro-[1,1′-biphenyl]-4-yl]carbonyl}-[(2S)-[(2-pyrrolidin-1-yl)methyl]pyrrolidin-1-yl]-10,11-dihydro-5H-pyrrolo[2,1-c][1,4]benzodiazepin-3-yl-methanone]: the “OT % inhibition @ 100% nM” value stood at 101%.

On to `Cc1cc(C(=O)N2Cc3ccc(C(=O)NCCCN(C)C)n3Cc3ccccc32)ccc1-c1ccccc1C(F)(F)F` [Example 84, N-[3-(Dimethylamino)propyl]-10-{[2-methyl-2′-(trifluoromethyl)[1,1′-biphenyl]-4-yl]carbonyl}-10,11-dihydro-5H-pyrrolo[2,1-c][1 .4]benzodiazepine-3-carboxamide], for which the “OT % inhibition @ 100% nM” value is on record as 48%. The term inhibition denotes the change of the read-out against control, counted positive when it falls. Regarding `COc1ccccc1-c1ccc(C(=O)N2Cc3ccc(C(=O)N(C)CCCN(C)C)n3Cc3ccccc32)cc1OC` [Example 107, 10-[(2,2′-Dimethoxy[1,1′-biphenyl]-4-yl)carbonyl]-N-[3-(dimethylamino)propyl]-N-methyl-10,11-dihydro-5H-pyrrolo[2,1-c][1,4]benzodiazepine-3-carboxamide], the inhibition at 0.1 µM is 87%. For `COc1cccc(-c2ccc(C(=O)N3Cc4ccc(C(=O)N(C)CCCN(C)C)n4Cc4ccccc43)cc2OC)c1` [Example 108, 10-[(2,3′-Dimethoxy[1,1′-biphenyl]-4-yl)carbonyl]-N-[3-(dimethylamino)propyl]-N-methyl-10,11-dihydro-5H-pyrrolo[2,1-c][1,4]benzodiazepine-3-carboxamide], the inhibition at 0.1 µM came to 96%.

Take `CN(C)CCCN(C)C(=O)c1ccc2n1Cc1ccccc1N(C(=O)c1ccc(-c3cccc4ccccc34)cc1Cl)C2` [Example 109, 10-[2-Chloro-4-(1-naphthyl)benzoyl]-N-[3-(dimethylamino)propyl]-N-methyl-10,11-dihydro-5H-pyrrolo[2,1-c][1,4]benzodiazepine-3-carboxamide]: the inhibition at 0.1 µM was found to be 49%. The same measure, in the same setting: the result for `COc1ccccc1-c1ccc(C(=O)N2Cc3ccc(C(=O)N4CCC(N5CCCCC5)CC4)n3Cc3ccccc32)cc1C` [Example 112, {10-[(2-Methyl-2′-methoxy[1,1′-biphenyl]-4-yl)carbonyl]-10,11-dihydro-5H-pyrrolo[2,1-c][1,4]benzodiazepin-3-yl}[4-(1-piperidinyl)-1-piperidinyl]methanone] reads 89%; that for `Cc1ccccc1-c1ccc(C(=O)N2Cc3ccc(C(=O)N4CCC(N5CCCCC5)CC4)n3Cc3ccccc32)cc1C` [Example 113, {10-[(2-Methyl-2′-methyl[1,1′-biphenyl]-4-yl)carbonyl]-10,11-dihydro-5H-pyrrolo[2,1-c][1,4]benzodiazepin-3-yl}[4-(1-piperidinyl)-1-piperidinyl]methanone], 97%.

`COc1cccc(-c2ccc(C(=O)N3Cc4ccc(C(=O)N5CCC(N6CCCCC6)CC5)n4Cc4ccccc43)cc2C)c1` [Example 114, {10-[(2-Methyl-3′-methoxy[1,1′-biphenyl]-4-yl)carbonyl]-10,11-dihydro-5H-pyrrolo[2,1-c][1,4]benzodiazepin-3-yl}[4-(1-piperidinyl)-1-piperidinyl]methanone]: the inhibition at 0.1 µM was 76%. On to `Cc1ccccc1-c1ccc(C(=O)N2Cc3ccc(C(=O)N4CCC(N5CCCCC5)CC4)n3Cc3ccccc32)cc1` [Example 115, {10-[(2′-Methyl[1,1′-biphenyl]-4-yl)carbonyl]-10,11-dihydro-5H-pyrrolo[2,1-c][1,4]benzodiazepin-3-yl}[4-(1-piperidinyl)-1-piperidinyl]methanone], for which the inhibition at 0.1 µM was found to be 25%.

As for `COc1cc(C(=O)N2Cc3ccc(C(=O)N4CCC(N5CCCCC5)CC4)n3Cc3ccccc32)ccc1-c1ccccc1C` [Example 116, {10-[(2-Methoxy-2′-methyl[1,1′-biphenyl]-4-yl)carbonyl]-10,11-dihydro-5H-pyrrolo[2,1-c][1,4]benzodiazepin-3-yl}[4-(1-piperidinyl)-1-piperidinyl]methanone], the inhibition at 0.1 µM was 84%.

Consider `COc1cccc(-c2cc(OC)c(C(=O)N3Cc4ccc(C(=O)N5CCC(N6CCCCC6)CC5)n4Cc4ccccc43)cc2Cl)c1` [Example 117, {10-[(6-Chloro-3-methoxy-3′-methoxy[1,1′-biphenyl]-4-yl)carbonyl]-10,11-dihydro-5H-pyrrolo[2,1-c][1,4]benzodiazepin-3-yl}[4-(1-piperidinyl)-1-piperidinyl]methanone], for which the inhibition at 0.1 µM was 70%. Regarding `COc1cc(C(=O)N2Cc3ccc(C(=O)N4CCC(N5CCCCC5)CC4)n3Cc3ccccc32)ccc1-c1cccc2ccccc12` [Example 118, {10-[3-Methoxy-4-(1-naphthyl)-benzoyl]-10,11-dihydro-5H-pyrrolo[2,1-c][1,4]benzodiazepin-3-yl}[4-(1-piperidinyl)-1-piperidinyl]methanone], the inhibition at 0.1 µM came to 54%.
